What was measured:
healthy volunteers = test: 24-hour continuous infusion dose escalation study of CXL-1020 in healthy volunteers; format: in vivo, humans; conditions: forearm vein infusion
Description: To determine whether a local phlebitis would occur in humans upon longer duration dosing, a longer duration study was conducted in healthy volunteers. The longer duration study included a dose escalation study in which cohorts of 10 volunteers were to be sequentially administered a 24-hour continuous infusion of CXL-1020 at the dose rates of 10, 20, and 30 μg/kg/min with a safety assessment between each cohort. Each cohort consisted of 2 placebo and 8 active treatments with a sentinel pair of 1 active and 1 placebo followed by the main group of 1 placebo and 7 active treatments. The infusion was via a percutaneous catheter inserted into a forearm vein. The catheter was switched to the contralateral arm after 12 hours of infusion.

dogs = test: 72-hour continuous infusion investigative studies of CXL-1020 in dogs (implanted catheter); format: in vivo; conditions: 72-hour infusion
Description: To determine the cause of the inflammation and hind limb swelling, a series of 72-hour continuous infusion investigative studies were conducted over the following 6 months. […] The first site of inflammation, the catheter insertion site, caused the dog hind limb swelling and inflammation observed in the early-terminated follow-up study. Increasing infusate pH from 4 to 6 decreased inflammation, improving the inflammatory profile by approximately 3-fold.

[1] = system: heart failure canines (microembolization model); test: Hemodynamic efficacy in canine microembolization heart failure model; format: in vivo, mongrel dogs; conditions: 3 or 10 μg/kg/min infusion, FIG. 3
Description: Heart failure was produced using healthy, conditioned, purpose-bred mongrel dogs (20-26 kg) using a sequential microembolization model. Coronary microembolization was performed until LV-ejection fraction (determined angiographically under anesthesia) was approximately 30% or lower. Two weeks were then provided after the last microembolization to ensure stabilization of each animal prior to initiating experiments.
An initial dose-finding study (2-100 μg/kg/min for 40 min) was performed in 3 dogs to identify therapeutically relevant doses of a compound of formula (1). […] Only one dose was studied on a given day, the other at least one-week later, and the order randomized. […]
LV end-systolic volume (ESV) and end-diastolic volumes (EDV) were calculated from ventriculograms using the area-length method. […] LV fractional area of shortening (FAS) was measured from LV short axis view at the level of papillary muscles obtained from 2-dimensional echocardiograms. Measured indexes of LV diastolic function included deceleration time of mitral inflow velocity (DT), ratio of the integral of early mitral inflow velocity (Ei) to velocity during atrial contraction (Ai) (Ei/Ai) and LV end-diastolic circumferential wall stress (EDWS).
Measurements of myocardial oxygen consumption were performed at baseline and at 4 hours after 10 μg/kg/min infusion. […] Oxygen content was determined with a hemoximeter. […]

Row | SMILES | tolerability at 10 μg/kg/min for 24-hours (healthy volunteers; 10 μg/kg/min) | findings at 20 μg/kg/min for 24-hours (healthy volunteers; 20 μg/kg/min) | improvement of the inflammatory profile on increasing infusate pH from 4 to 6 (dogs) | dose rates at which significant undesirable side effects were still demonstrated (dogs; infusate pH 6) | dose rates causing clinical pathology changes consistent with an inflammatory process (dogs; pH 4 formulation, 1:1 molar CXL-1020:CAPTISOL in 5% dextrose) | hemodynamic activity relative to CXL-1020 [1]
1 | CS(=O)(=O)c1ccccc1S(=O)(=O)NO [CXL-1020, N-hydroxy-2-methanesulfonylbenzene-1-sulfonamide] | well tolerated | mild findings (either clinical signs and/or changes in clinical pathology) in all 8 subjects consistent with infusion site phlebitis | approximately 3 fold | greater than or equal to 3 μg/kg/min | greater than or equal to 0.03 μg/kg/min | 
2 | Cc1ccc(S(=O)(=O)NO)o1 [Compound (1), N-Hydroxy-5-methylfuran-2-sulfonamide] |  |  |  |  |  | comparable hemodynamic activity to CXL-1020
